Experimental findings from patent publication US12331040B2 (Karyopharm Therapeutics Inc., priority 2013, dated 2025) are described below.

For the test, the system named is PAK4 signalling in NHDF cells. Put plainly: Western blots of PAK4 signalling in normal cells (NHDF). It counts as cell-based, human. The settings on record: NHDF normal cell line; 72-hour treatment, increasing concentrations; Western blot. On the procedure: Normal human dermal fibroblasts (NHDF) and normal lung cells (IMR-90) were treated with Compound 585 for 72 hours, at which time the cells were lysed in RIPA buffer. The lysates were run on SDS-PAGE and Western blots of phospho-PAK4, PAK4, phospho-cofilin, cofilin, phospho-β-catenin, β-catenin, PARP and caspase-3 were performed.

In the case of `Nc1ccc(/C=C/C(=O)NCc2cc3cc(-c4ccc(C(=O)N5CCC(F)(F)CC5)cn4)cc(C(F)(F)F)c3o2)cn1` [Compound 585, (E)-3-(6-aminopyridin-3-yl)-N-((5-(5-(4,4-difluoropiperidine-1-carbonyl)pyridin-2-yl)-7-(trifluoromethyl)benzofuran-2-yl)methyl)acrylamide], the “effect on PAK4 signalling (phospho-PAK4, PAK4, phospho-cofilin, cofilin, phospho-β-catenin, β-catenin, PARP, caspase 3)” value was “little to no effect”.
